Assay results published in the NIST ThermoML archive (doi:10.1021/je9009442).
± gives the expanded uncertainty stated by the source.

Test: wn = mass fraction of the nth substance listed
Conditions: Liquid, inclined tube viscometer, w1 = 0.505

## FC(F)C(F)(F)F [pentafluoroethane] + FCF
256.15 K
  kinematic viscosity: 1.72e-07 ± 1.5e-09 m2/s
258.15 K
  kinematic viscosity: 1.685e-07 ± 1.5e-09 m2/s
260.15 K
  kinematic viscosity: 1.652e-07 ± 1.5e-09 m2/s
262.15 K
  kinematic viscosity: 1.619e-07 ± 1.4e-09 m2/s
264.15 K
  kinematic viscosity: 1.587e-07 ± 1.4e-09 m2/s
266.15 K
  kinematic viscosity: 1.556e-07 ± 1.4e-09 m2/s
268.15 K
  kinematic viscosity: 1.526e-07 ± 1.3e-09 m2/s
270.15 K
  kinematic viscosity: 1.497e-07 ± 1.3e-09 m2/s
272.15 K
  kinematic viscosity: 1.468e-07 ± 1.3e-09 m2/s
274.15 K
  kinematic viscosity: 1.44e-07 ± 1.3e-09 m2/s
276.15 K
  kinematic viscosity: 1.413e-07 ± 1.2e-09 m2/s
278.15 K
  kinematic viscosity: 1.386e-07 ± 1.2e-09 m2/s
280.15 K
  kinematic viscosity: 1.36e-07 ± 1.2e-09 m2/s
282.15 K
  kinematic viscosity: 1.335e-07 ± 1.2e-09 m2/s
284.15 K
  kinematic viscosity: 1.31e-07 ± 1.2e-09 m2/s
286.15 K
  kinematic viscosity: 1.285e-07 ± 1.1e-09 m2/s
288.15 K
  kinematic viscosity: 1.262e-07 ± 1.1e-09 m2/s
290.15 K
  kinematic viscosity: 1.238e-07 ± 1.1e-09 m2/s
292.15 K
  kinematic viscosity: 1.215e-07 ± 1.1e-09 m2/s
294.15 K
  kinematic viscosity: 1.193e-07 ± 1e-09 m2/s
296.15 K
  kinematic viscosity: 1.171e-07 ± 1e-09 m2/s
298.15 K
  kinematic viscosity: 1.15e-07 ± 1e-09 m2/s
300.15 K
  kinematic viscosity: 1.129e-07 ± 1e-09 m2/s
302.15 K
  kinematic viscosity: 1.108e-07 ± 1e-09 m2/s
304.15 K
  kinematic viscosity: 1.088e-07 ± 1e-09 m2/s
306.15 K
  kinematic viscosity: 1.068e-07 ± 9e-10 m2/s
308.15 K
  kinematic viscosity: 1.048e-07 ± 9e-10 m2/s
310.15 K
  kinematic viscosity: 1.029e-07 ± 9e-10 m2/s
312.15 K
  kinematic viscosity: 1.01e-07 ± 9e-10 m2/s
314.15 K
  kinematic viscosity: 9.92e-08 ± 9e-10 m2/s
316.15 K
  kinematic viscosity: 9.73e-08 ± 9e-10 m2/s
318.15 K
  kinematic viscosity: 9.55e-08 ± 8e-10 m2/s
320.15 K
  kinematic viscosity: 9.38e-08 ± 8e-10 m2/s
322.15 K
  kinematic viscosity: 9.2e-08 ± 8e-10 m2/s
324.15 K
  kinematic viscosity: 9.03e-08 ± 8e-10 m2/s
326.15 K
  kinematic viscosity: 8.86e-08 ± 8e-10 m2/s
328.15 K
  kinematic viscosity: 8.7e-08 ± 8e-10 m2/s
330.15 K
  kinematic viscosity: 8.53e-08 ± 8e-10 m2/s
332.15 K
  kinematic viscosity: 8.37e-08 ± 7e-10 m2/s
334.15 K
  kinematic viscosity: 8.21e-08 ± 7e-10 m2/s
336.15 K
  kinematic viscosity: 8.06e-08 ± 7e-10 m2/s
